Measurements published in patent US11524962B2, “Substituted pyrrolo[2,3-d]pyrimidines as inhibitors of protein arginine methyl transferase 5 (PRMT5)” (PRELUDE THERAPEUTICS, INCORPORATED, priority 2017, dated 2022).

Key:
[1] = test system: Symmetric Di-Methyl Arginine (sDMA) marks in U-87 MG cells; test: sDMA Western blot / In Cell Western in U-87 MG cells; format: cell-based; settings: Homo sapiens, 72 h, 3 days, read-out: sDMA_U87 IC50
Protocol: Compound titration and cell culture: Compounds were dissolved in DMSO to make 10 mM stock and 3-fold series dilutions were further conducted to make working stocks top at 1 mM. Granta-519 cells were maintained in PRMI 1640 (Corning Cellgro, Catalog #: 10-040-CV) supplemented with 10% v/v FBS (GE Healthcare, Catalog #: SH30910.03) and U-87 MG cells were maintained in DMEM (Corning Cellgro, Catalog #: 10-013-CV) with 10% FBS and 2 mM Glutamin (Corning Cellgro, Catalog #25005CV).
To determine enzyme inhibition IC50 values in Granta-519 and U-87 MG cells using Western Blot analysis. One day before experiment, Granta-519 cells were passaged to a density of 0.5×10^6 cells/ml. U-87 MG cells were trypsinized and 4×10^5 cells were seeded into 6-well plates and allow to grow overnight. The next day, Granta-519 cells were spun down at 1,500 rpm for 4 min, resuspend in fresh medium at 0.5×10^6 cells/ml and 3 mL of culture (1.5×10^6 cells) were seeded into 6 well plate. Eight-point, 3-fold serial dilutions of compound working stocks were added to cells (3 ul, 1:1,000 dilution, DMSO concentration was 0.1%; final top concentration at 1 uM) and incubated for 3 days. Cells incubated with DMSO was used as a vehicle control.
Cells were harvested 3 days later, resuspended in 15 uL PBS, lysed in 4% SDS, and homogenized by passing through homogenizer column (Omega Biotek, Catalog #: HCR003). Total protein concentrations were determined by BCA assay (ThermoFisher Scientific, Catalog #: 23225). Lysates were mixed with 5× Laemmli buffer and boiled for 5 min. Forty ug of total protein was separated on SDS-PAGE gels (Bio-Rad, catalog #: 4568083, 4568043), transferred to PVDF membrane, blocked with 5% dry milk (Bio-Rad, Catalog #: 1706404) in TBS with 0.1% v/v Tween 20 (TBST) for 1 hour at room temperature (RT), and incubated with primary antibodies (sDMA: Cell signaling, Catalog #: 13222, 1:3,000; β-Actin: sigma, Catalog #: 1:5,000) in 5% dry milk in TBST at 4° C. overnight. The next day, membranes were washed with TBST, 5×5 min, and incubated with HRP conjugated seconded antibody (GE Healthcare; Catalog #: NA934-1ML, NA931-1ML; 1:5,000) for 2 hours at RT, followed by 5×5 min washes with TBST, and incubation with ECL substrates (Bio-Rad, Catalog #: 1705061, 1705062). Chemiluminescent signal was captured with Fluochem HD2 imager (Proteinsimple). SmD3me2s bands were quantified by ImageJ. Signals were normalized to β-Actin and DMSO control. IC50 values were calculated using Graphpad Prism ([Inhibitor]vs. normalized response−Variable slope).
U87-MG cells were trypsinized one day before the experiment, seeded into a 384-well plate at 2500 cells/well using a Multidrop Combi Dispenser (ThermoFisher) and allowed to grow overnight. The next day (day 0), a series of 9-point, 3-fold serial dilutions of compounds were prepared and dispensed into wells from a 1 mM stock solution using a TECAN digital dispenser (D300e) and the DMSO % concentration was normalized to 0.1%. Three days later, media was removed, and cells were processed as described above.
To determine IC50 values, the ratio for each well was calculated (sDMA 800 nm value/DRAQ5 700 nm value). Each plate included 28 negative control wells (DMSO only, minimum inhibition) and 18 positive control wells for maximum inhibition (treated with 3 uM of a reference compounds, background wells). The average ratios of minimum and maximum inhibition controls were calculated and used to determine the percentage of sDMA, relative to DMSO, for each well in the plate.
These procedures generated the sDMA data in Table 7.

[2] = test system: U87MG-luc3 human glioblastoma cells; test: Tumor growth inhibition in U87 MG mouse orthotopic model; format: in vivo; settings: for tumor growth inhibition: day 29
Protocol: U87MG-luc3 human glioblastoma cells were grown to mid-log phase in Eagle's Minimum Essential Medium containing 10% fetal bovine serum, 2 mM glutamine, 1× non-essential amino acids, 0.075% sodium bicarbonate, 1 mM sodium pyruvate, 100 units/mL sodium penicillin G, g/mL gentamicin, and 100 μg/mL streptomycin sulfate. The tumor cells were cultured in tissue culture flasks in a humidified incubator at 37° C., in an atmosphere of 5% CO2 and 95% air. Cells were cultured in 2 μg/mL puromycin until the second to last passage before implant, grown to mid-log phase and harvested. Post-implant verification of luciferase-expressing cells was performed by maintaining cells in culture for three passages after implant to ensure stable doubling time. Limiting dilution was used to verify and quantitate light production in the presence of luciferin. Cells were harvested at mid-log phase and resuspended at a concentration of 1×10^8 cells/mL in PBS. Each mouse (Female athymic nude mice (Crl:NU(NCr)-Foxn1nu, Charles River)) received an intracranial injection of 1×10^6 U87MG-luc3 cells (0.01 mL cell suspension) and tumor growth was monitored through whole body bioluminescent imaging. Four days post cell implant, designated as Day 1 of the study, the animals were sorted into five groups based on flux values before treatment starts. Ex. 11 or vehicle (0.5% Na CMC+0.5% Tween80) was administered orally BID. Ex. 11 was dosed at 10, 20 mg/kg BID and 50 mg/kg BID, 7-day on/7-day off for 22 days. Animals were continued to be observed to obtain overall survival data.
In Vivo bioluminescence images (dorsal) were captured to monitor tumor progression. Luciferase activity was measured in live animals using IVIS SpectrumCT (Perkin Elmer, Mass.) equipped with a CCD camera (cooled at −90° C.), mounted on a light-tight specimen chamber. Regions of interest were drawn around each mouse image, and flux was quantified and reported as 10^6 photons per second (p/s). For overall survival, animals were monitored individually to an endpoint of moribundity due to progression of systemic lymphoma. Full hind limb paralysis, severe ocular proptosis or moribundity all called for euthanasia.

[3] = 50 mg/kg BID oral, 7-day on/7-day off

Compound | IC50 [1] [µM] | median survival ([2]; 10 mg/kg BID oral) [days] | tumor growth inhibition ([2]; 10 mg/kg BID oral) [%] | median survival ([2]; 20 mg/kg BID oral) [days] | tumor growth inhibition ([2]; 20 mg/kg BID oral) [%] | median survival [2, 3] [days] | tumor growth inhibition [2, 3] [%]
Nc1ncnc2c1c(F)cn2[C@@H]1O[C@H]([C@H](O)c2ccc3c(c2)CC3)[C@@H](O)[C@H]1O [Example 6, (2R,3R,4S,5R)-2-(4-amino-5-fluoro-7H-pyrrolo[2,3-d]pyrimidin-7-yl)-5-((R)-bicyclo[4.2.0]octa-1(6),2,4-trien-3-yl(hydroxy)methyl)tetrahydrofuran-3,4-diol] | 0.094 | – | – | – | – | – | –
Cc1ncnc2c1ccn2[C@@H]1O[C@H]([C@H](O)c2ccc3c(c2)CC3)[C@@H](O)[C@H]1O [Example 11, (2R,3S,4R,5R)-2-((R)-bicyclo[4.2.0]octa-1(6),2,4-trien-3-yl(hydroxy)methyl)-5-(4-methyl-7H-pyrrolo[2,3-d]pyrimidin-7-yl)tetrahydrofuran-3,4-diol] | 0.053 | 41 | 10 | 37.5 | 61 | 39 | 85
